# Laboratory results reported in US10537545B2, “Ceramide derivatives as anticancer agents” (Rutgers, The State University of New Jersey, priority 2015, dated 2020).
# pIC50: −log10 of the molar value.
# What was measured:
# [1] = tested on: HELA; settings: reported in Andrianasolo et al., J. Nat. Prod. 2011, read-out: IC50, growth inhibition of HeLa (cervical cancer); cited from earlier work
# [2] = tested on: MCF7; settings: reported in Andrianasolo et al., J. Nat. Prod. 2011, read-out: IC50, growth inhibition of MCF7 (breast cancer); cited from earlier work
# [3] = tested on: HELA; experiment: Cytotoxicity assay, HELA cancer cell line; type: cell-based; settings: for CTRL HELA (growth relative to control): control = 1; for Growth HELA: control growth 0.55
# Description: (§1) Cytotoxicity Assay. […] Cells were treated with varying concentrations of compounds. The IC50 were measured. […] In order to verify that assumption an LDH (Lactate Dehydrogenase) assay was performed.
# [4] = tested on: MCF7; experiment: Cytotoxicity assay, MCF7 cancer cell line; type: cell-based, human; settings: for CTRL MCF7 (growth relative to control): control = 1; for Growth MCF7: control growth 0.7
# Description: as §1
# [5] = target: T1, HDAC6 (Homo sapiens, UniProt Q9UBN7); experiment: HDAC inhibitor assay, HDAC6; type: biochemical; settings: class II B HDAC6; read-out: IC50, inhibition of HDAC6
# T1 sequence (Q9UBN7 1-1215): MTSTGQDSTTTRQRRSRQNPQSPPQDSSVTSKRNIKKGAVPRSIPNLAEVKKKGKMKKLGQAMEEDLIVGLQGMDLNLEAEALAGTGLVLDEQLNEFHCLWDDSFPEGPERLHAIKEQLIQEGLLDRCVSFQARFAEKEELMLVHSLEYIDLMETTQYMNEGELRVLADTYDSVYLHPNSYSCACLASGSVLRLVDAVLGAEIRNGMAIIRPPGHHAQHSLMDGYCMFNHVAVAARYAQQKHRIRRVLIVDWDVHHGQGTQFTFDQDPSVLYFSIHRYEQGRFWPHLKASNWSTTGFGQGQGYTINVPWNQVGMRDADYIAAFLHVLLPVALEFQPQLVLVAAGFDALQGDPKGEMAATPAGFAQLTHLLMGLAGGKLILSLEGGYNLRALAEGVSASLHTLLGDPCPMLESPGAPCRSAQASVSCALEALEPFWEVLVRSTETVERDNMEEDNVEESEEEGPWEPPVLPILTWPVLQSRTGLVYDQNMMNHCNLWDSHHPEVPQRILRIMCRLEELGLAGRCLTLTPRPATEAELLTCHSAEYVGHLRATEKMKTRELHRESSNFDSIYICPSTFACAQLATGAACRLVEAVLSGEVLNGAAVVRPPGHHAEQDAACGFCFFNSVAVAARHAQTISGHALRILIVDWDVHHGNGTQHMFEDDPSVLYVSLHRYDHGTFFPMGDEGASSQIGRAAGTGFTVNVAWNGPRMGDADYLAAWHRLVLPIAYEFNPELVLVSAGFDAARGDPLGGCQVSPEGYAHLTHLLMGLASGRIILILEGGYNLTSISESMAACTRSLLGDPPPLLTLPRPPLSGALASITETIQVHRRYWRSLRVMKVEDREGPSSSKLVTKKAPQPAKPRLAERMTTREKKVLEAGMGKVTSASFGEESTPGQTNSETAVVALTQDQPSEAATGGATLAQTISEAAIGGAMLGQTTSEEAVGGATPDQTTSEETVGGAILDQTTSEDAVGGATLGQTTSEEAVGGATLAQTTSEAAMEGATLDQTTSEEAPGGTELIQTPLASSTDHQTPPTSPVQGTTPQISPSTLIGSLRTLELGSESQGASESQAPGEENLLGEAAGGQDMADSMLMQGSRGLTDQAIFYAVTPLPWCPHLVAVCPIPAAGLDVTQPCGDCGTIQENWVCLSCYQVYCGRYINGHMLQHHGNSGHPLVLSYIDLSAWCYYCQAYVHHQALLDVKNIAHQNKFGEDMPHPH
# From the text: (§2) Compound VIII was subjected to enzymatic inhibition test against the class I (HDAC1, HDAC2, HDAC3 and HDAC8), the class II A (HDAC4, HDAC5, HDAC7 and HDAC9) and the class II B (HDAC6) enzymes. HDAC inhibitors Trichostatin A (TSA) and TMP269 (TMP) were used as reference compounds.
# [6] = target: HDAC1 (Homo sapiens, UniProt Q13547); experiment: HDAC inhibitor assay, HDAC1; type: biochemical; settings: up to 50 or 100 μM
# Chain of HDAC1 (Q13547 whole entry, species assumed): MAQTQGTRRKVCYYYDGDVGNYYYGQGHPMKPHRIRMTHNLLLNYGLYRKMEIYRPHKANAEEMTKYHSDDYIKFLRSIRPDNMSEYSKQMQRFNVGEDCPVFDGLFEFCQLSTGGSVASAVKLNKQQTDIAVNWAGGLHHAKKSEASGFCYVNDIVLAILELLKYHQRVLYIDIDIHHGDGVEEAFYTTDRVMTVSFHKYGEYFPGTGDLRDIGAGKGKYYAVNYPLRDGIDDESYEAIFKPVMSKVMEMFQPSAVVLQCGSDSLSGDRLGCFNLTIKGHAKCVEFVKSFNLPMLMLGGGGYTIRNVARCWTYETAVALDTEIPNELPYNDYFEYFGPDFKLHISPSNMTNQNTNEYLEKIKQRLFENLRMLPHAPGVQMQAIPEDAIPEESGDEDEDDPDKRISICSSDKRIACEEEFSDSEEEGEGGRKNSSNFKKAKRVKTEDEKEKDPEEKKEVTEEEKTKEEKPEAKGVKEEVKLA
# From the text: as §2
# [7] = target: HDAC2 (Homo sapiens, UniProt Q92769); experiment: HDAC inhibitor assay, HDAC2; type: biochemical; settings: up to 50 or 100 μM
# Chain of HDAC2 (Q92769 whole entry, species assumed): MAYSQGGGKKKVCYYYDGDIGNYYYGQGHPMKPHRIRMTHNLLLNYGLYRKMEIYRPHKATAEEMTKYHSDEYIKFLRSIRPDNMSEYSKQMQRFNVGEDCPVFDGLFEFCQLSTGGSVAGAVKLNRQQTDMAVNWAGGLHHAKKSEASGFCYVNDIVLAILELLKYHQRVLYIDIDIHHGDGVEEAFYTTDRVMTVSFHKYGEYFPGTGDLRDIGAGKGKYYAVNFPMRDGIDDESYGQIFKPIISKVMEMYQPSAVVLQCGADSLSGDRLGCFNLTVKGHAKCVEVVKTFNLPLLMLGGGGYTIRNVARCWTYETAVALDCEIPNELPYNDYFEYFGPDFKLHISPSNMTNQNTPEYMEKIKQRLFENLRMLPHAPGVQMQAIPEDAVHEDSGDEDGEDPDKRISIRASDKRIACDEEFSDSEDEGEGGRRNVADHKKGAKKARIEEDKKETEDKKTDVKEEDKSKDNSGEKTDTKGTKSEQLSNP
# From the text: as §2
# [8] = target: HDAC3 (Homo sapiens, UniProt O15379); experiment: HDAC inhibitor assay, HDAC3; type: biochemical; settings: up to 50 or 100 μM
# Chain of HDAC3 (O15379 whole entry, species assumed): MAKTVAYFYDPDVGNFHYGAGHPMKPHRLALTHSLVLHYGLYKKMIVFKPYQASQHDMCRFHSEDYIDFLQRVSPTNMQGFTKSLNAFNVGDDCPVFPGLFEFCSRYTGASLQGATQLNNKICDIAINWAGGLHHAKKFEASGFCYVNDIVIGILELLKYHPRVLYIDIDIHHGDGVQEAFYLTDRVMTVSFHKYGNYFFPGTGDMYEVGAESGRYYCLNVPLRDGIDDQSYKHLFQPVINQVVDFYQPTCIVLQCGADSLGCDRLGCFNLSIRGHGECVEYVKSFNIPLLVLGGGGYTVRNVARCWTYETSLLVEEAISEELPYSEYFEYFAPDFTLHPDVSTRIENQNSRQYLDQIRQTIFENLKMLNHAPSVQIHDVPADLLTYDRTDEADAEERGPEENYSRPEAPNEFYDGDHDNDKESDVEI
# Chain of HDAC3 (Q9Y618 395-489 partner limits assumed, species assumed): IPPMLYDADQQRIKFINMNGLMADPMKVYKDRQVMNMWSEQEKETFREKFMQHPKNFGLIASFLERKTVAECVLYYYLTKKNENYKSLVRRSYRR
# From the text: as §2
# [9] = target: T2, HDAC8 (Homo sapiens, UniProt Q9BY41); experiment: HDAC inhibitor assay, HDAC8; type: biochemical; settings: up to 50 or 100 μM
# T2 sequence (Q9BY41 1-377): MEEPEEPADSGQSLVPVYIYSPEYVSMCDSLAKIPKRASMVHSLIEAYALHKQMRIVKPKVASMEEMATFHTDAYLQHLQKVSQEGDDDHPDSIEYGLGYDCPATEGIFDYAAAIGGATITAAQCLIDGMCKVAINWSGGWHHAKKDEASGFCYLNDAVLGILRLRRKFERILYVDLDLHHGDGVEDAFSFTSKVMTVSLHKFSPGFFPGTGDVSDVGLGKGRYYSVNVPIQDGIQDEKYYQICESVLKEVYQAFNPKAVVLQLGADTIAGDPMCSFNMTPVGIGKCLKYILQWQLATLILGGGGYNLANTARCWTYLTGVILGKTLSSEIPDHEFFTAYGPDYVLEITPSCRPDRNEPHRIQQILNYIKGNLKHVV
# From the text: as §2
# [10] = target: HDAC4 (Homo sapiens, UniProt P56524); experiment: HDAC inhibitor assay, HDAC4; type: biochemical; settings: up to 50 or 100 μM
# Chain of HDAC4 (P56524 whole entry, species assumed): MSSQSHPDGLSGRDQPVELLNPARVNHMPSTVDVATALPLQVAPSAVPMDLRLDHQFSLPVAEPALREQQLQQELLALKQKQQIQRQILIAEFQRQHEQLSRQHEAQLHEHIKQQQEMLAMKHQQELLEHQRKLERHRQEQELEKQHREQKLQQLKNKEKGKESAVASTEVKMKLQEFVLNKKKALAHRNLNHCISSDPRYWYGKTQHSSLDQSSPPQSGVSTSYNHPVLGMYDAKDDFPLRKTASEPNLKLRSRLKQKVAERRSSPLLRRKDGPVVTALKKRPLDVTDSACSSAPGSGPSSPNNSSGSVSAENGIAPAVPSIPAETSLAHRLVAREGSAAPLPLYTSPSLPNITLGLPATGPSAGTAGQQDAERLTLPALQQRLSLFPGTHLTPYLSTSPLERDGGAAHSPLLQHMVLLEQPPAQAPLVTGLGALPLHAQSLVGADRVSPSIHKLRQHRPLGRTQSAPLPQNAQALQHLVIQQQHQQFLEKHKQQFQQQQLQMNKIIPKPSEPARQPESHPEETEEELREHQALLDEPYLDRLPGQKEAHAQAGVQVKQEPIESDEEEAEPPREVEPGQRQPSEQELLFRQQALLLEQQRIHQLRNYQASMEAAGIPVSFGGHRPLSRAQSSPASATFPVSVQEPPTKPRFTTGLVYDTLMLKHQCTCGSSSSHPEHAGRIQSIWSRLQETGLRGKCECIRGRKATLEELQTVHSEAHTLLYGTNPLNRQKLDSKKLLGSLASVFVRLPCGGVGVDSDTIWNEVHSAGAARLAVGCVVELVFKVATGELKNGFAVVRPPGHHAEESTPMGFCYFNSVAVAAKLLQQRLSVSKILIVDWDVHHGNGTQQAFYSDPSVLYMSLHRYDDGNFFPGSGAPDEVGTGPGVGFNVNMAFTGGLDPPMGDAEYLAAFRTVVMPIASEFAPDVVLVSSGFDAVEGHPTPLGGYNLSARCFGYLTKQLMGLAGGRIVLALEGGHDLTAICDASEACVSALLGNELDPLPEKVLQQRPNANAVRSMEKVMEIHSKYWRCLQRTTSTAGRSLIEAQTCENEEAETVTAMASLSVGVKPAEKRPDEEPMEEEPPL
# From the text: as §2
# [11] = target: HDAC5 (Homo sapiens, UniProt Q9UQL6); experiment: HDAC inhibitor assay, HDAC5; type: biochemical; settings: up to 50 or 100 μM
# Chain of HDAC5 (Q9UQL6 whole entry, species assumed): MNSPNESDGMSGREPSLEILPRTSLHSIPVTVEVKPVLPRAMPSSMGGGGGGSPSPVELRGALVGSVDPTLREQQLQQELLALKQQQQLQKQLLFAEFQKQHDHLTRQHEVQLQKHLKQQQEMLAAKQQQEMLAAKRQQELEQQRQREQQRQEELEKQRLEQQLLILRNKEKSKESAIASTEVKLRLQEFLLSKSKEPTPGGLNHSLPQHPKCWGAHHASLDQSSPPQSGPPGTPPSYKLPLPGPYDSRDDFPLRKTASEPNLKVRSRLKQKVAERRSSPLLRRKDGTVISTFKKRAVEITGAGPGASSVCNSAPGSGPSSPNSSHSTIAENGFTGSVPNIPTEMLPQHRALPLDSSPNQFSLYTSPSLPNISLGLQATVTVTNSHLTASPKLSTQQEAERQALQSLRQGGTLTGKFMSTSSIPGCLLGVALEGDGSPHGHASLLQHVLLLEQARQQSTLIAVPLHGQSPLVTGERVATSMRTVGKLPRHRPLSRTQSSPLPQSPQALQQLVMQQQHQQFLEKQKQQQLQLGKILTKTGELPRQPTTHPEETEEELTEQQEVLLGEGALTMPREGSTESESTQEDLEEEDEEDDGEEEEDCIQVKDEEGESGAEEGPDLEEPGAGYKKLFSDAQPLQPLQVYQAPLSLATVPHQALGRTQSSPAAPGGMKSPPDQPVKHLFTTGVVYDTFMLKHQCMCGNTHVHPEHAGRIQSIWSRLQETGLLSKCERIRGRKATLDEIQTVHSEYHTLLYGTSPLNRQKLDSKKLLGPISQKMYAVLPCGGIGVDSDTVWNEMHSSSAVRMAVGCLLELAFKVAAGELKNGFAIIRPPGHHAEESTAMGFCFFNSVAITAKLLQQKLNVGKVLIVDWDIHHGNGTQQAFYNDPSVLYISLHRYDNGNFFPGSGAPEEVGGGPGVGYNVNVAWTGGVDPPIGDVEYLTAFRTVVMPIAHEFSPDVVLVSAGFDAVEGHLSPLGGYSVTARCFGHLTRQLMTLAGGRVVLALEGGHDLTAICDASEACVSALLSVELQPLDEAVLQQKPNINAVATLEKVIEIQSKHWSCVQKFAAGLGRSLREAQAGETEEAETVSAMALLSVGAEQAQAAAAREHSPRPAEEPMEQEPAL
# From the text: as §2
# [12] = target: T3, HDAC7 (Homo sapiens, UniProt Q8WUI4); experiment: HDAC inhibitor assay, HDAC7; type: biochemical; settings: up to 50 or 100 μM
# T3 sequence (Q8WUI4 1-952): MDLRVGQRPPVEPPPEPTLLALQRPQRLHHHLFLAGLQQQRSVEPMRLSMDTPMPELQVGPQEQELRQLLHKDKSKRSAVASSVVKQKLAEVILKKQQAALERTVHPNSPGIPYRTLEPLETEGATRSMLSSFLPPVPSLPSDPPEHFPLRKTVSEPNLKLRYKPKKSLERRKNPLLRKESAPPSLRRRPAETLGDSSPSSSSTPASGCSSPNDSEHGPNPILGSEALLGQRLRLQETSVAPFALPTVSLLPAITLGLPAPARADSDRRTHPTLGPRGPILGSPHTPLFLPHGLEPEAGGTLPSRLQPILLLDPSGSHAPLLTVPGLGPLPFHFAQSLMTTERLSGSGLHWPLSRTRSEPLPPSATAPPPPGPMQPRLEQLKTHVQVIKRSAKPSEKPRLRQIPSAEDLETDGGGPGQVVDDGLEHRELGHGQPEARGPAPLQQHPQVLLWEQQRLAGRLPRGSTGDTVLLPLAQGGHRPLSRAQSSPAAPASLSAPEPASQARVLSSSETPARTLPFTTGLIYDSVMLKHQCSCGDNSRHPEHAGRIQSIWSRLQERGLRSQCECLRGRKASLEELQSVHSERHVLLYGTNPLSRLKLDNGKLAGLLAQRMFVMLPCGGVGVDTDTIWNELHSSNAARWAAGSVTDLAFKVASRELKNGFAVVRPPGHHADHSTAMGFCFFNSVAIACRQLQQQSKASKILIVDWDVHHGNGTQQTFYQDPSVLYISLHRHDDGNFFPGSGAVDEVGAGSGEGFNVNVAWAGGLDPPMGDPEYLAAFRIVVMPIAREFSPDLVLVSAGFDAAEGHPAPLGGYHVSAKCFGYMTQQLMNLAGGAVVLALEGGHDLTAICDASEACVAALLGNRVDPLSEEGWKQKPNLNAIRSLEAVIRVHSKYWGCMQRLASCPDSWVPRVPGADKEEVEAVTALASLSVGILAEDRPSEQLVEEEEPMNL
# From the text: as §2
# [13] = target: HDAC9 (Homo sapiens, UniProt Q9UKV0); experiment: HDAC inhibitor assay, HDAC9; type: biochemical; settings: up to 50 or 100 μM
# Chain of HDAC9 (Q9UKV0 whole entry, species assumed): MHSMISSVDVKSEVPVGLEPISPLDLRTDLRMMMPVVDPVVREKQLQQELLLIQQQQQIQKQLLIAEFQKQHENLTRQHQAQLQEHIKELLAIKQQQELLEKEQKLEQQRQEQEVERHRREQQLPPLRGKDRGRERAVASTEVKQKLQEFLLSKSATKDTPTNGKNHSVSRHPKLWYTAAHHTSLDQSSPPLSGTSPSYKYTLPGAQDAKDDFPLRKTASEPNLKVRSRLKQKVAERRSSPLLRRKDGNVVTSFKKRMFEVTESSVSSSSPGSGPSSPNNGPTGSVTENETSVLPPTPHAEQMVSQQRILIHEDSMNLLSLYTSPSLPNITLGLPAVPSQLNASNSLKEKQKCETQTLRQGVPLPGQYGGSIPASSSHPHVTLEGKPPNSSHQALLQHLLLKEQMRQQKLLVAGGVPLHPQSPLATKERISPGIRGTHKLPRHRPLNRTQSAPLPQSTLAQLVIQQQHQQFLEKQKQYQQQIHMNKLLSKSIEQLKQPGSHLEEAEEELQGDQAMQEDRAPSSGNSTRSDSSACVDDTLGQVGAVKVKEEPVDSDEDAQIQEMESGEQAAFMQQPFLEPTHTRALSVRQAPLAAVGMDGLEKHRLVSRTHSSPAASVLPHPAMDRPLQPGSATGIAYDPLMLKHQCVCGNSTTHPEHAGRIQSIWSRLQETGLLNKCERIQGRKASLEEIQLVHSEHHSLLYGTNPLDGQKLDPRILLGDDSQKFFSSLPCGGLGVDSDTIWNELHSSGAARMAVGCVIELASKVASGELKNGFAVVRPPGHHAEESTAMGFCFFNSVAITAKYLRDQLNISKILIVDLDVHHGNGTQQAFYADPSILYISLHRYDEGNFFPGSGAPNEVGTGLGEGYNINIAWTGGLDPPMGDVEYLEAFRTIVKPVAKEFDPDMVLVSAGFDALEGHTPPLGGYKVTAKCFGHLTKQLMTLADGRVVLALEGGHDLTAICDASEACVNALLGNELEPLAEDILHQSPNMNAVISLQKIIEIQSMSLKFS
# From the text: as §2
pIC50 [5],Inhibition of HDAC1 [6],Inhibition of HDAC2 [7],Inhibition of HDAC3 [8],Inhibition of HDAC8 [9],Inhibition of HDAC4 [10],Inhibition of HDAC5 [11],Inhibition of HDAC7 [12],Inhibition of HDAC9 [13],Structure (SMILES),pIC50 [1],pIC50 [2],CTRL HELA (growth relative to control) ([3]; 72 μg*0.01/ml),Growth HELA ([3]; 72 μg*0.01/ml),CTRL HELA (growth relative to control) ([3]; 360 μg*0.01/ml),Growth HELA ([3]; 360 μg*0.01/ml),CTRL MCF7 (growth relative to control) ([4]; 72 μg*0.01/ml),Growth MCF7 ([4]; 72 μg*0.01/ml),CTRL MCF7 (growth relative to control) ([4]; 360 μg*0.01/ml),Growth MCF7 ([4]; 360 μg*0.01/ml)
–,–,–,–,–,–,–,–,–,CCC/C=C\C/C=C\CCC(=O)O[C@@H](COC(=O)CCCCCCCCCCCCC)[C@H](O)[C@H](CO)NC(=O)CCCCCCCCCCC [compound 2],6.30,6.70,–,–,–,–,–,–,–,–
–,–,–,–,–,–,–,–,–,CCC/C=C\C/C=C\C/C=C\CCCCC(=O)O[C@@H](COC(=O)CCCCCCCCCCCCCCC)[C@H](O)[C@H](CO)NC(=O)CCCCCCCCCCC (relative stereo) [compound 1],6.40,7.00,0.78,0.43,0.56,0.31,0.42,0.29,0.15,0.11
~4.10,did not significantly inhibit,did not significantly inhibit,did not significantly inhibit,did not significantly inhibit,did not significantly inhibit,did not significantly inhibit,did not significantly inhibit,did not significantly inhibit,C=C1CC[C@@H]2O[C@@]2(C)CC[C@H](/C(=C/CC2OC2(C)C)CO)[C@H]1C(=O)OC (stereo partly drawn) [compound VIII],–,–,–,–,–,–,–,–,–,–
